Test results taken from patent publication US20040224892A1, “Oligosaccharides in cosmetic or dermatological compositions for stimulating adhesion of keratinocytes to major proteins of the dermoepidermal junction and restoration of epidermal cohesion” (Laboratoires de Biologie Vegetale Yves Rocher, a …, priority 2001, published 2004).

Legend:
[1] = system: normal human keratinocytes on laminin V; assay: Adhesion of normal human keratinocytes on laminin V (colorimetric crystal violet adherence test); format: cell-based; conditions: manganese chloride 0.5 mM, 45 minutes
Description: The culture medium employed was the defined medium for keratinocyte culture 154 (+additive HKGS) manufactured by Cascade Inc. (USA) and marketed by Tebu (France) containing 0.2 mM of CaCl2, pH 7.2 to 7.4. The keratinocytes were obtained according to the technique described by Boyce and Ham (Boyce S T, Ham R G, J. Invest. Dermatol., 1983, 81, 33s-40s). Pieces of human skin obtain from human prepuces (circumcision) were treated in a manner to isolate their basal human keratinocytes. 3·10^4 live cells were then seeded per cm^2 on 25-cm^2 tissue culture dishes (Coming, Polylabo, France). The keratinocytes were cultured at 37° C. in an incubator with CO2 (5% of CO2, 95% of air and 98% humidity). The medium was changed every two days. Subculture took place when the cells reached subconfluence. The cell layer was then rinsed with PBS, then the cells were trypsinated using the conventional trypsination technique (Trypsin-EDTA (0.05-0.02%) at 37° C.). The cells were then seeded in 75-cm^2 culture dishes. Collagen IV (Becton Dickinson, France), fibronectin (Becton Dickinson, France) and laminin 5, purified in the laboratory (Pousselle P. et al., J. Cell. Biol., 1991, 114(3); 567-576) were used in our experiments. […] An absorbance reading was performed at 570 nm using an ELISA plate reader. […] We then calculated the means of the three absorbance values for each of the triplicates. […]

[2] = system: normal human keratinocytes on collagen IV; assay: Adhesion of normal human keratinocytes on collagen IV (colorimetric crystal violet adherence test); format: cell-based; conditions: manganese chloride 0.5 mM, 45 minutes
Description: The culture medium employed was the defined medium for keratinocyte culture 154 (+additive HKGS) manufactured by Cascade Inc. (USA) and marketed by Tebu (France) containing 0.2 mM of CaCl2, pH 7.2 to 7.4. The keratinocytes were obtained according to the technique described by Boyce and Ham (Boyce S T, Ham R G, J. Invest. Dermatol., 1983, 81, 33s-40s). Pieces of human skin obtain from human prepuces (circumcision) were treated in a manner to isolate their basal human keratinocytes. 3·10^4 live cells were then seeded per cm^2 on 25-cm^2 tissue culture dishes (Coming, Polylabo, France). The keratinocytes were cultured at 37° C. in an incubator with CO2 (5% of CO2, 95% of air and 98% humidity). The medium was changed every two days. Subculture took place when the cells reached subconfluence. The cell layer was then rinsed with PBS, then the cells were trypsinated using the conventional trypsination technique (Trypsin-EDTA (0.05-0.02%) at 37° C.). The cells were then seeded in 75-cm^2 culture dishes. Collagen IV (Becton Dickinson, France), fibronectin (Becton Dickinson, France) and laminin 5, purified in the laboratory (Pousselle P. et al., J. Cell. Biol., 1991, 114(3); 567-576) were used in our experiments. […] An absorbance reading was performed at 570 nm using an ELISA plate reader. […] We then calculated the means of the three absorbance values for each of the triplicates.

Q: What does the source list for Manganese chloride [MnCl2]?
A: % adherence (cells alone = 100%) ([1]; Laminin 5 1.5 μg/ml): 109%; % adherence (cells alone = 100%) ([1]; Laminin 5 3 μg/ml): 97%; % adherence (cells alone = 100%) ([2]; Collagen IV 10 μg/ml): 280%; % adherence (cells alone = 100%) ([2]; Collagen IV 20 μg/ml): 357%
